The values that follow come from US5952382A, “Adamantyl-substituted retinoids and pharmaceutical/cosmetic compositions comprised thereof” (Centre International De Recherches Dermatologiques Galderma, priority 1995, dated 1999).

Experiment [1] deals with embryonic teratocarcinoma F9 cells. Description: Test of differentiation of embryonic teratocarcinoma F9 cells, antagonism of an agonist retinoid (secretion of the activator of plasminogen, morphology). Type of experiment: cell-based, mice. The following applies: inhibition by 50% of effect of agonist compound A (10 nM) on secretion of the activator of plasminogen, 3 days incubation, read-out: Antagonist against compound A (10 nM) Test of differentiation of F9 cells IC50.

For experiment [2] the test system is unchanged. To be noted: prior art; cited from earlier work.

A word on the pIC50: it is −log10 of the IC50, conventionally taken in molar units.

pIC50: −log10 of the molar value. Read-outs that look alike come from different tables or passages of the source.

With “4-[7-(1-adamantyl)-6-carbonylpentyloxy-2-naphthyl]benzoic acid [Example 20]”, the pIC50 in experiment [1] was 7.00. On to `O=C(O)c1ccc(-c2ccc3cc(OCc4ccccc4)c(C45CC6CC(CC(C6)C4)C5)cc3c2)cc1O` [Example 1, 2-hydroxy-4-[7-(1-adamantyl)-6-benzyloxy-2-naphthyl]benzoic acid], for which the pIC50 in experiment [1] (Mus musculus, F9, 72 h) is 8.30. Take `COCCOCOc1cc2ccc(-c3ccc(C(=O)O)cc3)cc2cc1C12CC3CC(CC(C3)C1)C2` [Example 3, 4-[7-(1-adamantyl)-6-methoxyethoxymethoxy-2-naphthyl]benzoic acid]: in experiment [1] (Mus musculus, F9, 72 h), the negative logarithm of the IC50 (pIC50) was 8.70. Consider `O=C(O)c1ccc(-c2ccc3cc(OCc4ccccc4)c(C45CC6CC(CC(C6)C4)C5)cc3c2)cc1` [Example 5, 4-[7-(1-adamantyl)-6-benzyloxy-2-naphthyl]benzoic acid], for which the negative logarithm of the IC50 (pIC50) in experiment [1] (Mus musculus, F9, 72 h) is 6.74. For the compound `O=C(O)c1ccc(-c2ccc3cc(C(=O)OCc4ccccc4)c(C45CC6CC(CC(C6)C4)C5)cc3c2)cc1` [Example 6, 4-[7-(1-adamantyl)-6-benzyloxycarbonyl-2-naphthyl]benzoic acid], in experiment [1] (Mus musculus, F9, 72 h), the pIC50 was 6.30. `O=C(O)c1ccc(-c2ccc3cc(OCCCCCCCCO)c(C45CC6CC(CC(C6)C4)C5)cc3c2)cc1` [Example 14, 4-[7-(1-adamantyl)-6-hydroxyoctyloxy-2-naphthyl]benzoic acid]: the pIC50 in experiment [1] (Mus musculus, F9, 72 h) is 6.60. As to `COCCCCCCOc1cc2ccc(-c3ccc(C(=O)O)cc3)cc2cc1C12CC3CC(CC(C3)C1)C2` [Example 39, 4-[7-(1-adamantyl)-6-methoxyhexyloxy-2-naphthyl]benzoic acid], in experiment [1] (Mus musculus, F9, 72 h), the negative logarithm of the IC50 (pIC50) is 6.35.

Regarding `CC1=C(/C=C/C(C)=C/C=C/C(C)=C/C(=O)O)C(C)(C)CCC1` [retinoic acid], the “induction of differentiation of embryonic teratocarcinoma cells (F9) in mice” value in experiment [2] was “capable of inducing differentiation”.
